# Columns and labels:
# Fc epsilon RI (FcεRI) = assay: Fc epsilon RI immunohistochemical marker in scar biopsies; type: in vivo, human; details: week 4, all groups, p<0.01
# Experimental: (§1) A double-blind randomized placebo-controlled trial was conducted using a temporal punch-biopsy model. The punch biopsy and topical application methodology used in the study is illustrated in FIG. 1, namely showing pre-injury pre-emptive priming (7-days), pre-injury pre-emptive priming (3-days), day of injury (immediate application on day 0), post-injury (delayed 2 weeks post injury) including biopsy time points and time of topical applications. Each group applied both placebo and topical formulations twice daily for the duration of the study until week 8, with only the starting time point differing between groups Participants were split into 4 groups (n=10 in each group) in order to compare different modes (timings) of commencement of the topical application: • Group-1: Pre-emptive Priming (7-days): pre-injury • Group-2: Pre-emptive Priming (3-days): pre-injury • Group-3: Immediate (0-day): day-of-injury • Group-4: Delayed (14-days): post-injury Clinical quantitative devices were used to objectively monitor cutaneous healing at weekly intervals and punch biopsies were performed on day 0 (uninjured skin) and at weeks 4 and 8 for protein and gene expression analyses. […] Excisional skin biopsies in upper arms were evaluated weekly with multiple quantitative devices over an 8-week period. […]
# CD31 [1] = assay: CD31 angiogenic immunohistochemical marker in scar biopsies; type: in vivo, human
# Experimental: A double-blind randomized placebo-controlled trial was conducted using a temporal punch-biopsy model. The punch biopsy and topical application methodology used in the study is illustrated in FIG. 1, namely showing pre-injury pre-emptive priming (7-days), pre-injury pre-emptive priming (3-days), day of injury (immediate application on day 0), post-injury (delayed 2 weeks post injury) including biopsy time points and time of topical applications. Each group applied both placebo and topical formulations twice daily for the duration of the study until week 8, with only the starting time point differing between groups Participants were split into 4 groups (n=10 in each group) in order to compare different modes (timings) of commencement of the topical application: • Group-1: Pre-emptive Priming (7-days): pre-injury • Group-2: Pre-emptive Priming (3-days): pre-injury • Group-3: Immediate (0-day): day-of-injury • Group-4: Delayed (14-days): post-injury Clinical quantitative devices were used to objectively monitor cutaneous healing at weekly intervals and punch biopsies were performed on day 0 (uninjured skin) and at weeks 4 and 8 for protein and gene expression analyses. In the trial, topical EGCG and a placebo topical were applied twice daily for the duration of the trial until week 8 with only the starting time points differing between groups. Clinical and experimental analysis involved use of non-invasive devices as well as protein and gene studies. Excisional skin biopsies in upper arms were evaluated weekly with multiple quantitative devices over an 8-week period. […] In order to further support these findings and the clinical findings, two well-known and established angiogenic immunohistochemical markers; CD31 and VEGF-A were used. […] There was a significant difference between groups (p=0.02) at week-4.
# CD31 [2] = assay: QRT-PCR for CD31; type: in vivo, human; details: week 4, all groups
# Experimental: as §1
# [3] = test system: human skin scarring model; assay: Skin thickness by high frequency ultrasound (HFUS); type: in vivo; details: significant in group-1 week 8 (p=0.002); group-2 weeks 6, 8; group-3 weeks 5-8; group-4 weeks 3, 5-8 (p<0.01)
# Experimental: as §1, with “Structural changes” for “Excisional skin biopsies”, “the scars” for “upper arms”, “assessed clinically by high frequency ultrasound (HFUS) and elasticity probe, and elastin and collagen markers.” for “evaluated weekly with multiple quantitative devices over an 8-week period.”
smiles,measurement,setting,value
"O=C(OC1Cc2c(O)cc(O)cc2OC1c1cc(O)c(O)c(O)c1)c1cc(O)c(O)c(O)c1 (single isomer, unassigned; (-)) [EGCG, (-)-epigallocatechin-3-gallate]",FcεRI in EGCG-treated samples compared to placebo,Fc epsilon RI (FcεRI),significant reduction
same,Angiogenic markers in primed uninjured skin,CD31 [1]; primed uninjured skin prior to injury,reduces angiogenic markers
same,CD31: larger reduction in group 1 compared to group-4,"CD31 [1]; week 4, 7-day priming vs delayed, p=0.01",40%
same,CD31 in EGCG-treated samples compared with placebo,"CD31 [1]; weeks 4 and 8, all groups, p<0.01",significantly down-regulated
same,"QRT-PCR CD31, EGCG-treated samples compared to placebo",CD31 [2],significant down regulation
same,"HFUS skin thickness, EGCG scars compared to placebo scars",[3],lower

# Reference: patent publication US12691092B2, “Method for reducing cutaneous skin scarring by pre-emptive priming and compounds and compositions for its implementation” (SOS SCIENCE OF SKIN LTD, priority 2020, dated 2026)
